Experimental data: US10695482B2, “Cartridge and method for increasing myocardial function” (SeaStar Medical, Inc., priority 2011, dated 2020)

Columns and labels:
[1] = system: leukocytes in porcine blood; experiment: Microscopic flow chamber: leukocyte interaction with polysulfone membrane; format: cell-based, pig
Description: A custom microscopic flow chamber system was set up to enable microscopic analysis of leukocyte interaction with the SCD membrane. The flow chamber consisted of a polycarbonate housing with an inlet and outlet for perfusion. A polysulfone membrane was affixed to the polycarbonate block with a gasket which directed shear flow. The thickness of the gasket (100 μm) along with the length (2 cm) and the width of the channel (1.5 mm) determined the volume of the flow chamber. Microscopic imaging was accomplished through an optical window made up of a cover glass affixed to the bottom of the polycarbonate block. Either isolated blood or purified leukocytes were used for this study.
Isolated blood was prone to activation from excessive handling. Thus, 5 mL of fresh heparinized porcine blood was minimally manipulated prior to the flow chamber study. Briefly, leukocytes were fluorescently labeled using 50 μg/mL of Hoechst 33342 dye. Further, the leukocytes were activated by adding 1 μg/ml lipopolysaccharide (LPS) directly to the blood samples. […] Blood passed through the flow chamber at a rate of 20 μL/min with calculated shear forces between 1-10 dynes/cm^2. For each isolated blood sample, sequences were acquired in triplicate.
Microscopic analysis of cell capture events was accomplished using either a Zeiss Axiovert 200M or Axio-Observer epifluorescence microscope equipped with a microscope stage-top incubator to control environmental temperature and CO2 content. Fluorescence images were acquired with either a Zeiss MRm3 or an Icc1 camera at a frequency of 1 frame/second for 5 minutes, for analysis of leukocyte/membrane interaction, and at 1 frame/minute for 1 hour sequences, for analysis of long term leukocyte attachment. Frame by frame evaluation of leukocyte rolling, attachment and detachment of leukocytes was carried out to determine the total number and duration of these phenomena. An attachment event was defined as when a leukocyte appeared in the same location for multiple frames within a sequence. […]

[2] = system: leukocytes in human whole blood; experiment: In vitro whole blood leukocyte activation assay; format: cell-based; details: for CD11b: n = 3; for IL-10: n = 4; for IL-8: n = 5; for IL-6: n = 7
Protocol: Heparinized human whole blood was added to tubes with or without lipopolysaccharide (LPS) (10 μg/mL) or formyl-Methionyl-Leucyl-Phenylalanine (fMLF, 50 nM). […] The release of IL-6, IL-8, or IL-10 was measured using commercially available ELISA kits from R&D Systems. The release of elastase was measured using a commercially available ELISA kit from Bender MedSystems. The release of lactoferrin was measured using a commercially available ELISA kit from EMD Chemicals. […] Samples were incubated for various times at 37° C. and 5% CO2. CD11b activation was measured using an FITC-conjugated mouse anti-human antibody (AbD Serotech) and evaluated on an Accuri C6 flow cytometer.

Compound | persistent leukocyte adhesion events ([1]; 1 hour sequences, LPS and citrate versus LPS only, preliminary analysis) | rolling events ([1]; LPS and citrate treated blood) | leukocyte attachment to polysulfone membranes during shear flow ([1]; LPS-activated blood, low ionized calcium, FIG. 17) | CD11b ([2]; Baseline) [MFI × 10^3] | IL-10 ([2]; Baseline) [ng/mL] | IL-8 ([2]; Baseline) | IL-6 ([2]; Baseline) [ng/mL] | CD11b ([2]; Stimulated (LPS, fMLF)) [MFI × 10^3] | IL-10 ([2]; Stimulated (LPS, fMLF)) [ng/mL] | IL-8 ([2]; Stimulated (LPS, fMLF)) [ng/mL] | IL-6 ([2]; Stimulated (LPS, fMLF)) [ng/mL]
O=C(O)CC(O)(CC(=O)O)C(=O)O [Citrate] | far fewer persistent leukocyte adhesion events | increase in rolling events | statistically significant decrease in leukocyte attachment |  |  |  |  |  |  |  | 
Heparin |  |  |  | 22.55 ± 1.06 | 0.11 ± 0.07 | 0.0 ± 0^ ng/mL | 0.18 ± 0.04 | 53.43 ± 3.12 | 3.74 ± 0.94 | 34.18 ± 6.66 | 65.42 ± 19.77
